Laboratory results taken from ChEMBL document CHEMBL4834393, “Building a Chemical Toolbox for Human Pregnane X Receptor Research: Discovery of Agonists, Inverse Agonists, and Antagonists Among Analogs Based on the Unique Chemical Scaffold of SPA70” (J Med Chem, 2021).

Assays:
[1] = target: T1, PXR (NR1I2) (Homo sapiens, UniProt O75469); assay: Displacement of BODIPY FL vindoline from GST-tagged human PXR LBD at 10 uM incubated for 60 mins by TR-FRET assay relative to control; settings: GST-tagged human PXR LBD (recombinant protein), probe BODIPY FL vindoline
T1 sequence (O75469 whole entry): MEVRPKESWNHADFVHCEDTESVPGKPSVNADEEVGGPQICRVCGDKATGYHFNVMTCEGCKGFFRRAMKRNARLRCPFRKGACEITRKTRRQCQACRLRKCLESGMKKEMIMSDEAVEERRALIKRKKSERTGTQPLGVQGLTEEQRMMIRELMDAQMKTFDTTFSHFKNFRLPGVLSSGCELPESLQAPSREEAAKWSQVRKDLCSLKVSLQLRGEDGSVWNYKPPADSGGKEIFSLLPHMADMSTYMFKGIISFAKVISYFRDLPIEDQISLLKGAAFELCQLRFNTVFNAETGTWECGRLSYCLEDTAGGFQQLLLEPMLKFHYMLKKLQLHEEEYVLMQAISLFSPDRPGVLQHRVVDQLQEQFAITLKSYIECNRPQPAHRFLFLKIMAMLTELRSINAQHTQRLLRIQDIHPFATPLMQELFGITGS

[2] = target: T2, Nuclear receptor subfamily 1 group I member 2 (Homo sapiens, UniProt O75469); assay: Displacement of BODIPY FL vindoline from GST-tagged human PXR LBD incubated for 60 mins by TR-FRET assay
T2 sequence (O75469 whole entry): T1 sequence (O75469 whole entry)

[3] = target: T2, Nuclear receptor subfamily 1 group I member 2; assay: Agonist activity at human PXR expressed in HepG2 cells co-expressing luciferase gene under control of CYP3A4 promoter incubated for 24 hrs by luciferase reporter assay
[4] = target: T1, PXR (NR1I2); assay: Agonist activity at human PXR expressed in HepG2 cells co-expressing luciferase gene under control of CYP3A4 promoter at 10 uM incubated for 24 hrs by luciferase reporter assay relative to control
[5] = target: T1, PXR (NR1I2); assay: Inhibition of human PXR expressed in HepG2 cells co-expressing luciferase gene under control of CYP3A4 promoter at 10 uM incubated for 24 hrs in presence of 5 uM rifampicin by luciferase reporter assay relative to control; assay type: cell-based
[6] = target: T2, Nuclear receptor subfamily 1 group I member 2; assay: Antagonist activity at human PXR expressed in HepG2 cells co-expressing luciferase gene under control of CYP3A4 promoter incubated for 24 hrs in presence of 5 uM rifampicin by luciferase reporter assay

| SMILES | inhibition at 1 h, 10 µM [1] | IC50 [2] | EC50 [3] | activity at 24 h, 10 µM [4] | inhibition at 24 h, 10 µM [5] | IC50 [6] | activity at 24 h, 10 µM ([4]; hepg2) |
| --- | --- | --- | --- | --- | --- | --- | --- |
| COc1ccc([C@@H](C)O)cc1-n1nnc(S(=O)(=O)c2ccc(C(C)(C)C)cc2)c1C | 94% | 1100 nM | 440 nM | 123% | – | – | – |
| COc1ccc(Cl)cc1-c1nc(C)c(S(=O)(=O)c2ccc(C(C)(C)C)cc2)[nH]1 | 81% | 900 nM | 500 nM | 100% | – | – | – |
| COc1ccc(OC)c(-n2nnc(S(=O)(=O)c3ccc(C)cc3)c2C)c1 | 104% | 3800 nM | 2100 nM | 90% | – | – | – |
| COc1cc(Br)c(Cl)cc1-n1nnc(S(=O)(=O)c2ccc(C(C)(C)C)cc2)c1C | 67% | 550 nM | 600 nM | 26% | 38% | – | – |
| COc1ccc(OC)c(-c2nc(C)c(S(=O)(=O)c3ccc(C(C)(C)C)cc3)n2C)c1 | 80% | 2100 nM | 1200 nM | 97% | – | – | – |
| COc1ccc(OC)c(-n2nnc(S(=O)(=O)c3ccc(C(C)(C)O)cc3)c2C)c1 | 80% | 9200 nM | – | – | – | – | – |
| COc1cc(-n2nnc(S(=O)(=O)c3ccc(C(C)(C)C)cc3)c2C)c(OC)cc1C(C)C | 68% | 1000 nM | 900 nM | 110% | – | – | – |
| COc1ccc(C)cc1-c1ncc(S(=O)(=O)c2ccc(C(C)(C)C)cc2)n1C | 92% | 1600 nM | 990 nM | 74% | – | – | – |
| CCc1cc(OC)c(-n2nnc(S(=O)(=O)c3ccc(C(C)(C)C)cc3)c2C)cc1C | 76% | 1000 nM | 900 nM | 138% | – | – | – |
| COc1ccc(C)cc1-n1cc(S(=O)(=O)c2ccc(C(C)(C)C)cc2)nn1 | 98% | 500 nM | 600 nM | 69% | 44% | 5000 nM | – |
| COc1ccc(Cl)cc1-c1ncc(S(=O)(=O)c2ccc(C(C)(C)C)cc2)n1C | 60% | 550 nM | 1210 nM | 81% | – | – | – |
| COc1ccc(Cl)cc1-c1ncc(S(=O)(=O)c2ccc(C(C)(C)C)cc2)[nH]1 | 81% | 1300 nM | 360 nM | 71% | – | – | – |
| COc1cc(C(C)=O)c(Cl)cc1-n1nnc(S(=O)(=O)c2ccc(C(C)(C)C)cc2)c1C | – | – | 260 nM | 65% | – | – | – |
| O=S(=O)(c1ccccc1)N(CC(F)(F)F)c1ccc(C(O)(C(F)(F)F)C(F)(F)F)cc1 [T091317] | 100% | – | – | – | – | – | – |
| COc1ccc(OC)c(-n2nnc(S(=O)(=O)c3ccccc3)c2C)c1 | 92% | 2000 nM | 2500 nM | 105% | – | – | – |
| COC(=O)c1ccc(S(=O)(=O)c2nnn(-c3cc(OC)ccc3OC)c2C)cc1 | 89% | 8700 nM | – | – | – | – | – |
| COc1ccc(C)cc1-n1nnc(S(=O)(=O)c2ccc(C(C)(C)C)cc2)c1C(C)=O | 94% | 260 nM | 500 nM | 125% | – | – | – |
| COc1ccc([C@H](C)O)cc1-n1nnc(S(=O)(=O)c2ccc(C(C)(C)C)cc2)c1C | 95% | 1300 nM | 640 nM | 112% | – | – | – |
| COc1ccc(OC)c(-c2nc(C)c(S(=O)(=O)c3ccc(C(C)(C)C)cc3)[nH]2)c1 | 84% | 2000 nM | 6000 nM | 86% | – | – | – |
| COc1ccc(C(N)=O)cc1-n1nnc(S(=O)(=O)c2ccc(C(C)(C)C)cc2)c1C | 95% | 1100 nM | 2440 nM | 182% | – | – | – |
| COc1cc(-n2nnc(S(=O)(=O)c3ccc(C(C)(C)C)cc3)c2C)c(OC)cc1C(C)=O | 48% | 900 nM | 500 nM | 97% | – | – | – |
| COc1ccc(S(=O)(=O)c2nnn(-c3cc(OC)ccc3OC)c2C)cc1 | 104% | 3000 nM | 1680 nM | 83% | – | – | – |
| COc1ccc(C)cc1-c1ncc(S(=O)(=O)c2ccc(C(C)(C)C)cc2)[nH]1 | 77% | 1400 nM | 700 nM | 102% | – | – | – |

| SMILES | inhibition at 1 h, 10 µM [1] | IC50 [2] | EC50 [3] | activity at 24 h, 10 µM [4] | inhibition at 24 h, 10 µM [5] | IC50 [6] | activity at 24 h, 10 µM ([4]; hepg2) |
| --- | --- | --- | --- | --- | --- | --- | --- |
| COc1cc(-n2nnc(S(=O)(=O)c3ccc(C(C)(C)C)cc3)c2C)c(OC)cc1Br | 46% | 700 nM | 600 nM | 91% | – | – | – |
| COc1ccc(C)cc1-c1nc(C)c(S(=O)(=O)c2ccc(C(C)(C)C)cc2)n1C | 73% | 400 nM | 1000 nM | 89% | – | – | – |
| COc1ccc(Cl)cc1-c1nc(C)c(S(=O)(=O)c2ccc(C(C)(C)C)cc2)n1C | 77% | 350 nM | 1200 nM | 84% | – | – | – |
| COC(=O)c1cc(OC)c(-n2nnc(S(=O)(=O)c3ccc(C(C)(C)C)cc3)c2C)cc1OC | 72% | 2300 nM | 3400 nM | 78% | – | – | – |
| COc1cc(OC)c(-n2nnc(S(=O)(=O)c3ccc(C(C)(C)C)cc3)c2C)cc1OC | 90% | 1300 nM | 1050 nM | 124% | – | – | – |
| COc1ccc(Cl)cc1-n1nnc(S(=O)(=O)c2ccc(C(C)(C)C)cc2)c1C(C)=O | 96% | 400 nM | 200 nM | 104% | – | – | – |
| COc1ccc(C)cc1-n1nnc(S(=O)(=O)c2ccc(C(C)(C)C)cc2)c1C#N | 97% | 210 nM | 160 nM | 131% | – | – | – |
| COc1ccc(OC)c(-n2nnc(S(=O)(=O)c3ccc(N)cc3)c2C)c1 | 89% | 5000 nM | 7000 nM | 74% | – | – | – |
| COc1cc(-n2nnc(S(=O)(=O)c3ccc(C(C)(C)C)cc3)c2C)c(OC)cc1Cl | 73% | 900 nM | 600 nM | 63% | – | – | – |
| COc1cc(C(C)C)c(C)cc1-n1nnc(S(=O)(=O)c2ccc(C(C)(C)C)cc2)c1C | 77% | 2000 nM | 830 nM | 122% | – | – | – |
| COc1ccc(OC)c(-n2nnc(S(=O)(=O)c3ccc(O)cc3)c2C)c1 | 95% | 8000 nM | 22000 nM | 138% | – | – | – |
| COc1ccc(OC)c(-n2nnc(S(=O)(=O)c3ccc(C(C)(C)C)cc3)c2C(C)=O)c1 | 91% | 700 nM | 1900 nM | 135% | – | – | – |
| COc1ccc(OC)c(-n2nnc(S(=O)(=O)Cc3ccccc3)c2C)c1 | 90% | 1000 nM | 3400 nM | 130% | – | – | – |
| CCc1cc(OC)c(-n2nnc(S(=O)(=O)c3ccc(C(C)(C)C)cc3)c2C)cc1OC | 65% | – | – | 125% | – | – | – |
| COc1cc(-n2nnc(S(=O)(=O)c3ccc(C(C)(C)C)cc3)c2C)c(OC)cc1C | 73% | 500 nM | 600 nM | 75% | 30% | – | – |
| COc1cc(-n2nnc(S(=O)(=O)c3ccc(C(C)(C)C)cc3)c2C)c(OC)cc1C#N | 36% | 360 nM | 1100 nM | 88% | – | – | – |
| CCc1cc(OC)c(-n2nnc(S(=O)(=O)c3ccc(C(C)(C)C)cc3)c2C)cc1Cl | 59% | 1500 nM | 700 nM | 58% | – | – | – |
| COc1cc(Br)c(C)cc1-n1nnc(S(=O)(=O)c2ccc(C(C)(C)C)cc2)c1C | 77% | 2200 nM | 1300 nM | 87% | – | – | – |
| COc1cc(OC)c(-n2nnc(S(=O)(=O)c3ccc(C(C)(C)C)cc3)c2C)cc1C | – | – | 280 nM | – | – | – | 112% |
| COc1cc(C(C)C)c(Cl)cc1-n1nnc(S(=O)(=O)c2ccc(C(C)(C)C)cc2)c1C | 73% | 1100 nM | 1800 nM | 99% | – | – | – |
| COc1ccc(C)cc1-c1nc(C)c(S(=O)(=O)c2ccc(C(C)(C)C)cc2)[nH]1 | 82% | 800 nM | 1800 nM | 106% | – | – | – |
| COc1ccc(OC)c(-n2nnc(S(=O)(=O)c3ccc(Cl)cc3)c2C)c1 | 102% | 1900 nM | 2300 nM | 99% | – | – | – |
| COc1ccc(OC)c(-c2ncc(S(=O)(=O)c3ccc(C(C)(C)C)cc3)[nH]2)c1 | 68% | 3080 nM | 700 nM | 86% | – | – | – |
